Assay results published in patent publication US20140158116A1, “INHIBITING TRPA1 FOR THE TREATMENT OF ASTHMA” (Cubist Pharmaceuticals, Inc., priority 2012, published 2014).

Columns and labels:
[1] = target: hTRPV4 (Homo sapiens, UniProt Q9HBA0); test: Patch clamp selectivity, hTRPV4 block; type: cell-based
Method: (§1) Data for TRPA1 inhibition and the selectivity of TRPA1 inhibition was obtained by this method for the compound of Formula (Ia) and included in Table 1 and Table 2. All currents were recorded in whole-cell configuration using EPC-9 and EPC-10 amplifiers and Patchmaster software (HEKA). […] The standard pipette solution consisted of 140 mM CsAsp, 10 mM EGTA, 10 mM HEPES, 2.27 mM MgCl2, 1.91 mM CaCl2, 4 mM MgATP, and 0.1-0.3 mM Na2GTP, with pH adjusted to 7.2 with CsOH. In addition, a solution containing 145 mM CsCl, 10 mM HEPES, 10 mM EGTA and 1 mM MgCl2 (pH 7.2 adjusted with CsOH) can be used. The standard bath solution contained 150 mM NaCl, 10 mM HEPES, 10 mM glucose, 4.5 mM KCl, 1 mM EGTA, 3 mM MgCl2, with pH adjusted to 7.4 with NaOH. In some instances, 2 mM CaCl2 was added in place of EGTA and the concentration of MgCl2 was reduced to 1 mM.
(§2) Data were collected either by continuous recordings at −60 mV or by applying voltage ramps from a holding potential of 0 mV every 4 s. […] Inward and outward currents were analyzed from the ramps at −80 and 80 mV, respectively. […]
(§3) Solutions were switched using a gravity-fed continuous focal perfusion system. […] Temperatures were confirmed using a thermistor (Warner Instruments, TA-29), with temperatures at the recorded cell estimated to be within +/−2° C. of those reported. […]

[2] = target: T1, hTRPC5 (Homo sapiens, UniProt Q9UL62); test: Patch clamp selectivity, hTRPC5; type: cell-based
T1 sequence (Q9UL62 1-973): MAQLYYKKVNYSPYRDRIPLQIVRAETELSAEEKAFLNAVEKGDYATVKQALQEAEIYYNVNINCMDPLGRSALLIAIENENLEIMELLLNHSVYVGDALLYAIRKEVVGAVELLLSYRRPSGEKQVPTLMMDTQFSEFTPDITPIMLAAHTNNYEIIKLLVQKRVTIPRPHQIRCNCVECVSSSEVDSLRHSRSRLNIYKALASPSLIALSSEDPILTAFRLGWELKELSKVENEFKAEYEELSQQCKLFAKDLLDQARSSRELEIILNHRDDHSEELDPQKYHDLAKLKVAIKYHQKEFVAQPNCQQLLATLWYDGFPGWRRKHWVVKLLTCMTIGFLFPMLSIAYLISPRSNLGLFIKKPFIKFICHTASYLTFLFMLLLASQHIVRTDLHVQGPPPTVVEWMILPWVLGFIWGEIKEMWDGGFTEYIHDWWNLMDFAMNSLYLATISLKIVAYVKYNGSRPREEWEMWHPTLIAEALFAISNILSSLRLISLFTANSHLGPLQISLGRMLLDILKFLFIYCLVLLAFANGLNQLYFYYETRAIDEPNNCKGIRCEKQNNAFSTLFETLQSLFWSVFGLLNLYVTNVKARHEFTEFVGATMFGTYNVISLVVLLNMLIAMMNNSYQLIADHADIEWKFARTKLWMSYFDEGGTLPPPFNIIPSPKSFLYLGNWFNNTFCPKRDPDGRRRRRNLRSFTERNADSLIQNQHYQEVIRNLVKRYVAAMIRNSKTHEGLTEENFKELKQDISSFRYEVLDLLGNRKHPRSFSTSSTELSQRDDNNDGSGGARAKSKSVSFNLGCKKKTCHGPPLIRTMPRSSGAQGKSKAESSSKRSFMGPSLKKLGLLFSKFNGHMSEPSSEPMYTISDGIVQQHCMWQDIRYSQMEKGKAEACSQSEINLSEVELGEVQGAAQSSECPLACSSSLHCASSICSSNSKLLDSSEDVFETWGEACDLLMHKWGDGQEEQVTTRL
Method: as §1, §2, §3

[3] = Single ascending dose Phase 1A study; type: in vivo, human; details: healthy male volunteers; 6 ascending single doses
Source text: A randomized, double-blind, placebo-controlled, cross-over, single dose, safety, tolerability and pharmacokinetic study of 6 ascending doses of the compound of Formula (Ia) was undertaken in two cohorts of healthy male volunteers. A total of eighteen eligible healthy mail volunteers were recruited utilizing an alternating panel design. The first cohort of nine subjects (Cohort 1) was sequentially enrolled into 3 of 6 dosing periods (Dose Levels 1, 3, and 5). The remaining cohort of nine subjects (Cohort 2) was enrolled in the other 3 dosing periods (Dose Levels 2, 4, and 6). Within each dosing period, subjects were randomly assigned 2:1 to the compound of Formula (I) (n=6) or placebo (n=3). Each subject received one dose of placebo and two different doses of the compound of Formula (I) over the course of their participation in all three dosing periods. Subjects were equally randomized to one of 3 possible sequences, namely 1) placebo, active, active, 2) active, placebo, active, and 3) active, active, placebo.

Sequence of hTRPV4 (Q9HBA0 whole entry): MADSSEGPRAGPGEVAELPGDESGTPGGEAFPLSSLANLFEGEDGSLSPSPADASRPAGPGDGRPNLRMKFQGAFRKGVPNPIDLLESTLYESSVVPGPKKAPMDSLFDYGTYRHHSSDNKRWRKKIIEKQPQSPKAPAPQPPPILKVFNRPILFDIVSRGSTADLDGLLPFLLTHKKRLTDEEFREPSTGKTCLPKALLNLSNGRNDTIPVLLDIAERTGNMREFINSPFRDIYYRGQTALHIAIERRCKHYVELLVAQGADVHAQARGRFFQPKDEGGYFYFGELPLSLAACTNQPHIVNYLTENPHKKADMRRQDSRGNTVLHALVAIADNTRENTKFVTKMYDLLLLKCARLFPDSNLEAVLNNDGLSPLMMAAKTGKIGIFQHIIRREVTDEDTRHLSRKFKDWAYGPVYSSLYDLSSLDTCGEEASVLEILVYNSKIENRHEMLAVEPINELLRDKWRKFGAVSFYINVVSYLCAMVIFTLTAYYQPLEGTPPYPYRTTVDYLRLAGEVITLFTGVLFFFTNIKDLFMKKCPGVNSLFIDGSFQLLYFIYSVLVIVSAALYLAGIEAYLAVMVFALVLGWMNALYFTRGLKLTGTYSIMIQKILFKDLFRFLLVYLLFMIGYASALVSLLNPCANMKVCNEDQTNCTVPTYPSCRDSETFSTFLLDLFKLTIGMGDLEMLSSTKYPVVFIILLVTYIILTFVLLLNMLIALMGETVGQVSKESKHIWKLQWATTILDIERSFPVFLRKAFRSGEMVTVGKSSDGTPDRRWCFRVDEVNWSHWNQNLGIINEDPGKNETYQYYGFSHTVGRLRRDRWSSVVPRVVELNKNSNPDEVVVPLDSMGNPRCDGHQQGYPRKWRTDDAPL

Q: With `C[C@H]1CCCN1c1ncc(-c2cccc(NC(=O)Cn3cnc4c3c(=O)n(C)c(=O)n4C)n2)cn1` [Formula (Ia)] as the compound, how does the “Fold Selectivity Compared to TRPA1” value [1] read?
A: ~170 fold

Q: And the IC50 ([1]; 2 micromolar 4α-PDD, Inward (−80 mV))?
A: 16 µM

Q: What about the “Fold Selectivity Compared to TRPA1” value [2] of the same compound?
A: >100 fold

Q: And the IC50 ([2]; 80 micromolar LaCl3, Inward (−80 mV))?
A: > 10 µM

Q: And the safety signals [3]?
A: no safety signals seen that were attributable to the compound of Formula (Ia)
